Measured values as given in PubChem BioAssay (NCI).
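Tested at 5 concentrations; 48 h exposure; 96-well plates; endpoints linearly interpolated, else capped at highest concentration. Here, GI50 denotes the concentration required for 50% inhibition of growth. TGI marks complete inhibition of growth.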

Assays:
Assay in all cases: DTP human tumour cell line panel, 48 h
[1] = tested on: SF-268 CNS
[2] = tested on: 786-0 renal
[3] = tested on: IGROV1 ovarian
[4] = tested on: HOP-92 NSCLC
[5] = tested on: A549 NSCLC
[6] = tested on: UACC-257 melanoma
[7] = tested on: DU-145 prostate
[8] = tested on: MCF7 breast
[9] = tested on: TK-10 renal
[10] = tested on: NCI-H226 lung
[11] = tested on: SK-OV-3 ovarian
[12] = tested on: NCI-H522 lung
[13] = tested on: BT-549 breast
[14] = tested on: LOX IMVI melanoma
[15] = tested on: T-47D breast
[16] = tested on: HT29 colon
[17] = tested on: HL-60(TB) leukemia
[18] = tested on: M14 melanoma
[19] = tested on: UO-31 renal
[20] = tested on: CAKI-1 renal
[21] = tested on: SF-539 CNS
[22] = tested on: NCI-H460 lung
[23] = tested on: SW-620 colon
[24] = tested on: OVCAR-8 ovarian
[25] = tested on: SNB-75 CNS
[26] = tested on: HCT-116 colon
[27] = tested on: SK-MEL-2 melanoma
[28] = tested on: ACHN renal
[29] = tested on: SN12C renal
[30] = tested on: OVCAR-5 ovarian
[31] = tested on: HOP-62 NSCLC
[32] = tested on: MOLT-4 leukemia
[33] = tested on: MALME-3M melanoma
[34] = tested on: SR leukemia
[35] = tested on: OVCAR-3 ovarian
[36] = tested on: HS 578T breast
[37] = tested on: SNB-19 CNS
[38] = tested on: SF-295 CNS
[39] = tested on: NCI-H23 lung
[40] = tested on: PC-3 prostate
[41] = tested on: SK-MEL-28 melanoma
[42] = tested on: K-562 leukemia
[43] = tested on: NCI/ADR-RES ovarian
[44] = tested on: SK-MEL-5 melanoma
[45] = tested on: RXF 393 renal
[46] = tested on: HCT-15 colon
[47] = tested on: EKVX NSCLC
[48] = tested on: UACC-62 melanoma
[49] = tested on: MDA-MB-435
[50] = tested on: U251 CNS
[51] = tested on: MDA-MB-231 breast
[52] = tested on: KM12 colon
[53] = tested on: OVCAR-4 ovarian
[54] = tested on: RPMI-8226 leukemia
[55] = tested on: A498 renal
[56] = tested on: COLO 205 colon
[57] = tested on: CCRF-CEM leukemia
[58] = tested on: HCC-2998 colon

COc1ccc2c(c1)n([O-])c1cc(C#N)ccc1[n+]2=O
TGI [1]: 81.3 µM
TGI [2]: 30.8 µM
TGI [3]: 26.8 µM
TGI [4]: 28.6 µM
TGI [5]: 10.9 µM
TGI [6]: 19.4 µM
TGI [7]: 16.6 µM
TGI [8]: > 100 µM
TGI [9]: 10.8 µM
TGI [10]: 21.7 µM
TGI [11]: 43.1 µM
TGI [12]: 27.7 µM
TGI [13]: 51.6 µM
TGI [14]: 17.6 µM
TGI [15]: 48.6 µM
TGI [16]: 10.1 µM
TGI [17]: 71.6 µM
TGI [18]: 1.67 µM
TGI [19]: 23.1 µM
TGI [20]: 14.6 µM
TGI [21]: 16.2 µM
TGI [22]: > 100 µM
TGI [23]: 56.3 µM
TGI [24]: > 100 µM
TGI [25]: 20.3 µM
TGI [26]: 24 µM
TGI [27]: 19.2 µM
TGI [28]: 12.4 µM
TGI [29]: 20.6 µM
TGI [30]: 35.9 µM
TGI [31]: 15.6 µM
TGI [32]: 1.38 µM
TGI [33]: 8.06 µM
TGI [34]: 18.9 µM
TGI [35]: 26.1 µM
TGI [36]: 18.6 µM
TGI [37]: > 100 µM
TGI [38]: 3.77 µM
TGI [39]: 4.79 µM
TGI [40]: 21.7 µM
TGI [41]: 40.2 µM
TGI [42]: 97.4 µM
TGI [43]: 62.9 µM
TGI [44]: 2.6 µM
TGI [45]: > 100 µM
TGI [46]: 4.82 µM
TGI [47]: 79.1 µM
TGI [48]: 11 µM
TGI [49]: 6.12 µM
TGI [50]: 16.7 µM
TGI [51]: 59.5 µM
TGI [52]: 12.5 µM
TGI [53]: 91 µM

CC1=C(C(=O)Nc2ccc(F)c(Cl)c2)C(c2cccc(Cl)c2)NC(=S)N1 (stereo not drawn)
GI50 [1]: 10.1 µM
TGI [1]: 25.9 µM
GI50 [2]: 1.85 µM
TGI [2]: 8.4 µM
GI50 [3]: 10.3 µM
TGI [3]: 39.2 µM
GI50 [4]: 32.1 µM
TGI [4]: > 50 µM
GI50 [5]: 12.7 µM
TGI [5]: 41.9 µM
GI50 [6]: 10.1 µM
TGI [6]: 23.5 µM
GI50 [7]: 17.3 µM
TGI [7]: > 50 µM
GI50 [8]: 47.6 µM
TGI [8]: > 50 µM
GI50 [9]: 9.01 µM
TGI [9]: 45.5 µM
GI50 [11]: 5.26 µM
TGI [11]: 26.6 µM
GI50 [12]: 2.13 µM
TGI [12]: 17.3 µM
GI50 [13]: 10.4 µM
TGI [13]: 28.1 µM
GI50 [14]: 1.44 µM
TGI [14]: 6.76 µM
GI50 [15]: 42.5 µM
TGI [15]: > 50 µM
GI50 [54]: 15.3 µM
TGI [54]: > 50 µM
GI50 [17]: 16.3 µM
TGI [17]: > 50 µM
GI50 [18]: 9.02 µM
TGI [18]: 23.4 µM
GI50 [19]: 3.67 µM
TGI [19]: 14.6 µM
GI50 [20]: > 50 µM
TGI [20]: > 50 µM
GI50 [55]: 7.3 µM
TGI [55]: 15.7 µM
GI50 [21]: > 50 µM
TGI [21]: > 50 µM
GI50 [22]: 23.9 µM
TGI [22]: > 50 µM
GI50 [23]: > 50 µM
TGI [23]: > 50 µM
GI50 [24]: 17.1 µM
TGI [24]: > 50 µM
GI50 [25]: 6.36 µM
TGI [25]: 21 µM
GI50 [26]: 2.3 µM
TGI [26]: 11.3 µM
GI50 [27]: 8.4 µM
TGI [27]: 20.5 µM
GI50 [28]: 3.61 µM
TGI [28]: 14.4 µM
GI50 [29]: 0.00746 µM
TGI [29]: 2.51 µM
GI50 [31]: 7.83 µM
TGI [31]: 18.9 µM
GI50 [32]: 45.1 µM
TGI [32]: > 50 µM
GI50 [34]: 15.4 µM
TGI [34]: 47.8 µM
GI50 [35]: 13.9 µM
TGI [35]: 33.6 µM
GI50 [36]: 26.4 µM
TGI [36]: > 50 µM
GI50 [56]: 4.22 µM
TGI [56]: > 50 µM
GI50 [57]: 36.7 µM
TGI [57]: > 50 µM
GI50 [37]: 26.7 µM
TGI [37]: > 50 µM
GI50 [38]: 6.28 µM
TGI [38]: > 50 µM
GI50 [40]: 16.1 µM
TGI [40]: > 50 µM
GI50 [41]: 10.2 µM
TGI [41]: 28 µM
GI50 [42]: 13.6 µM
TGI [42]: 28.8 µM
GI50 [44]: 10 µM
TGI [44]: 20.2 µM
GI50 [45]: 1.1 µM
TGI [45]: 3.24 µM
GI50 [46]: 10.2 µM
TGI [46]: > 50 µM
GI50 [47]: 14.6 µM
TGI [47]: 38.6 µM
GI50 [48]: 3.93 µM
TGI [48]: 12.5 µM
GI50 [49]: 11.1 µM
TGI [49]: 32.4 µM
GI50 [50]: 6.84 µM
TGI [50]: 18.8 µM
GI50 [51]: 7.36 µM
TGI [51]: 17.4 µM
GI50 [52]: 1.34 µM
TGI [52]: 12.6 µM

O=C(C[n+]1cccc2cc(Cl)ccc21)c1ccc2c(c1)CCCC2
GI50 [1]: 1.44 µM
TGI [1]: 3.29 µM
GI50 [2]: 2.01 µM
TGI [2]: 5.25 µM
GI50 [3]: 1.52 µM
TGI [3]: 4.08 µM
GI50 [4]: 1.58 µM
TGI [4]: 3.22 µM
GI50 [5]: 3.7 µM
TGI [5]: 13.5 µM
GI50 [6]: 1.5 µM
TGI [6]: 3.58 µM
GI50 [7]: 1.46 µM
TGI [7]: 3.33 µM
GI50 [9]: 2.21 µM
TGI [9]: 4.65 µM
GI50 [10]: 1.48 µM
TGI [10]: 3.48 µM
GI50 [11]: 1.72 µM
TGI [11]: 6.94 µM
GI50 [12]: 1.51 µM
TGI [12]: 4.33 µM
GI50 [13]: 1.11 µM
TGI [13]: 2.97 µM
GI50 [14]: 0.831 µM
TGI [14]: 2.24 µM
GI50 [15]: 1.09 µM
TGI [15]: 2.71 µM
GI50 [54]: 0.91 µM
TGI [54]: 4.09 µM
GI50 [16]: 1.66 µM
TGI [16]: 3.44 µM
GI50 [17]: 0.882 µM
TGI [17]: 3.95 µM
GI50 [18]: 1.48 µM
TGI [18]: 3.2 µM
GI50 [19]: 5.71 µM
TGI [19]: 20.4 µM
GI50 [55]: 3.56 µM
TGI [55]: 13.3 µM
GI50 [21]: 1.4 µM
TGI [21]: 2.85 µM
GI50 [22]: 1.86 µM
TGI [22]: 3.68 µM
GI50 [23]: 2.03 µM
TGI [23]: 4.97 µM
GI50 [24]: 2.98 µM
TGI [24]: 11.2 µM
GI50 [25]: 1.35 µM
TGI [25]: 3.2 µM
GI50 [27]: 1.68 µM
TGI [27]: 3.41 µM
GI50 [28]: 4.91 µM
TGI [28]: 18.5 µM
GI50 [29]: 1.27 µM
TGI [29]: 3.04 µM
GI50 [30]: 1.84 µM
TGI [30]: 4.54 µM
GI50 [31]: 1.65 µM
TGI [31]: 3.85 µM
GI50 [32]: 1.41 µM
TGI [32]: 4.5 µM
GI50 [58]: 1.6 µM
TGI [58]: 3.28 µM
GI50 [33]: 1.2 µM
TGI [33]: 2.63 µM
GI50 [34]: 0.758 µM
TGI [34]: 6.18 µM
GI50 [35]: 0.875 µM
TGI [35]: 2.26 µM
GI50 [36]: 2.03 µM
TGI [36]: 5.43 µM
GI50 [56]: 1.5 µM
TGI [56]: 3.01 µM
GI50 [57]: 1.59 µM
TGI [57]: 8.74 µM
GI50 [37]: 1.12 µM
TGI [37]: 2.65 µM
GI50 [38]: 1.77 µM
TGI [38]: 4.22 µM
GI50 [39]: 1.14 µM
TGI [39]: 4.44 µM
GI50 [40]: 0.933 µM
TGI [40]: 3.61 µM
GI50 [41]: 1.62 µM
TGI [41]: 3.19 µM
GI50 [42]: 1.32 µM
TGI [42]: 10.3 µM
GI50 [43]: 19.9 µM
TGI [43]: 67.3 µM
GI50 [44]: 1.26 µM
TGI [44]: 2.55 µM
GI50 [45]: 1.69 µM
TGI [45]: 3.81 µM
GI50 [46]: 11.8 µM
TGI [46]: 31.7 µM
GI50 [47]: 2.46 µM
TGI [47]: 11.3 µM
GI50 [48]: 1.54 µM
TGI [48]: 3.49 µM
GI50 [49]: 1.61 µM
TGI [49]: 3.38 µM
GI50 [50]: 0.595 µM
TGI [50]: 1.86 µM
GI50 [51]: 1.5 µM
TGI [51]: 3.25 µM
GI50 [52]: 1.46 µM
TGI [52]: 3.36 µM
GI50 [53]: 0.982 µM
TGI [53]: 2.99 µM
